Assay in all cases: DTP human tumour cell line panel, 48 h
The test system of test [1] is A498 renal.
In test [2] the test system is HCT-15 colon.
Test [3] relates to HOP-62 NSCLC.
In test [4] the test system is OVCAR-3 ovarian.
Test [5] deals with OVCAR-5 ovarian.
The test system of test [6] is SF-268 CNS.
The test system of test [7] is SK-MEL-5 melanoma.
Test [8] has as its system SK-OV-3 ovarian.
The test system of test [9] is SN12C renal.
Test [10] relates to U251 CNS.

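Briefly, cells in 96-well plates were exposed to five compound concentrations for 48 h, and endpoints were estimated by linear interpolation. Here, GI50 denotes the concentration required for 50% inhibition of growth. TGI: concentration producing complete growth inhibition.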

Usually GI50 stands for the concentration at which growth is held to half of that of the control. One may read the TGI as the concentration at which net growth stops. Take `COc1ccc(-c2nc3sc4c(c3c(=O)[nH]2)CCCCCC4)cc1`: the GI50 was 0.897 µM in [1]; 0.655 µM in [2]; 1.87 µM in test [3]; 1.91 µM in test [4]; > 33.2 µM in test [5]; 13.9 µM in test [6]. Further, the GI50 was 2.52 µM in [7], 1.6 µM in test [8] and > 33.2 µM in [9]. Further, the TGI in test [1], in [2], in [3], in [4], in test [5] and in test [6] was > 33.2 µM throughout. In addition, the TGI in test [7], in test [8] and in test [9] was > 33.2 µM throughout.
As to `CC1(C)CC(=O)c2c(C(F)(F)F)nn(-c3ccc(C(N)=O)c(NC4CCC(OC(=O)CN)CC4)c3)c2C1` (configuration not stated), the GI50 is 0.303 µM in test [1]; 0.12 µM in [2]; 0.0785 µM in test [3]; 0.159 µM in test [4]; 3.7 µM in test [5]; 0.271 µM in test [6]. Further, the GI50 in [7] was 0.0742 µM; in test [8], 0.0238 µM; in [9], 0.0692 µM; in [10] it was 0.0731 µM. The TGI in test [1] is > 100 µM; in [2] it was > 93.6 µM; in test [3] it was > 100 µM; in test [4], > 100 µM; in test [5], > 100 µM; in test [6], > 100 µM. The TGI in test [7] is 18.3 µM; in test [8], > 100 µM; in test [9] it was > 100 µM; in test [10] it was > 54.2 µM.
For `C1C[OH+]CC[OH+]CCNCC[OH+]CC[OH+]CCN1.N.[Cl-].[Pt+4]`, the GI50 in test [1] is 21.3 µM; in test [2], 20.2 µM; in test [3], 6.11 µM; in test [4] it was 4.12 µM; in [6], 1.99 µM; in test [7], 10.3 µM. Besides, the values for the GI50 in test [8], in test [9] and in test [10] were 15.1 µM, 18.7 µM and 7.19 µM, respectively. The TGI worked out at 55.1 µM in [1]; 71.6 µM in test [2]; 66.3 µM in [3]; 19.4 µM in test [4]; 14.5 µM in test [6]; 25.3 µM in test [7]. The TGI was 60.9 µM in test [8], > 100 µM in test [9] and > 100 µM in [10].
On to `Cc1ccccc1[P+](Cc1ccccc1)(c1ccccc1)c1ccccc1`, for which the GI50 in test [1] is 1.46 µM; in test [2], 23.5 µM; in test [3], 4.34 µM; in test [4], 1.42 µM; in [5] it was 2.46 µM; in [6], 3.44 µM. The GI50 in [7] was 0.863 µM; in [8] it was 5.28 µM; in test [9], 2.85 µM; in [10], 1.99 µM. In addition, the TGI is 7.2 µM in test [1]; > 100 µM in test [2]; > 100 µM in test [3]; > 100 µM in [4]; > 100 µM in test [5]; > 100 µM in test [6]. Further, the TGI was 2.29 µM in [7], > 100 µM in test [8], 90.3 µM in [9] and 35.2 µM in test [10].
Turning to `CCCCCCCCCCCC(=O)OCC1OC(n2cc(F)c(=O)[nH]c2=O)C(NC(=O)OCc2ccccc2)C(OC(=O)CCCCCCCCCCC)C1O` (configuration not stated), the TGI in test [1], in [2], in test [3], in [4], in test [5] and in test [6] was > 100 µM each time. Also, the TGI in test [7], in test [8], in test [9] and in test [10] was > 100 µM each time.
For `O=C1/C(=C\c2c[nH]c3ccccc23)c2ccccc2N1c1c(Cl)cccc1Cl`, the GI50 is 3.09 µM in test [1]; 1.16 µM in [2]; 1.38 µM in test [3]; 1.83 µM in test [4]; 1.6 µM in test [6]; 1.55 µM in test [7]. Moreover, the values for the GI50 in test [8], in test [9] and in test [10] were 2.13 µM, 1.53 µM and 1.58 µM, respectively. Further, the TGI in [1] worked out at 4.86 µM; in test [2], 2.92 µM; in [3], 2.75 µM; in test [4], 3.78 µM; in [6] it was 3.59 µM; in test [7], 2.92 µM. The TGI in [8] came to 5.27 µM; in test [9] it was 2.89 µM; in test [10], 3.68 µM.
With `O=[N+]([O-])C1C2C=CC(C2)[C@H]1c1ccco1` (some centres not stated), the TGI in test [1], in [2], in test [3], in test [4], in test [5] and in [6] was > 100 µM throughout. Further, the TGI in test [7], in test [8], in [9] and in [10] was > 100 µM in each case.
For the compound `CN1CCC(n2cnc(-c3ccc(F)cc3)c2-c2ccnc(NCCO)n2)CC1`, the GI50 in test [1] is 14.8 µM; in test [2] it was 20.7 µM; in [3], > 25 µM; in test [4], > 23.4 µM; in test [5] it was > 25 µM; in test [6], 18.2 µM. The GI50 in test [7] was 17.2 µM; in test [8] it was > 25 µM; in [9], > 18.9 µM; in [10], 12.7 µM. Besides, the TGI in test [1], in test [2], in [3], in test [4], in test [5] and in test [6] was > 25 µM throughout. For the same compound, the TGI in test [7], in test [8], in [9] and in test [10] was > 25 µM throughout.
In the case of `O=C(CN1CCOCC1)Nc1nc(-c2ccc(Cl)cc2)cs1`, the TGI is > 100 µM in test [1]; > 100 µM in test [2]; 73.1 µM in test [3]; 76.9 µM in [4]; > 100 µM in [5]; > 100 µM in test [6]. For the same compound, the TGI in test [8], in test [9] and in test [10] was > 100 µM each time.
As to `CC#C[C@]1(O)CC[C@H]2[C@@H]3CCC4=CC(=O)CCC4=C3[C@@H](c3ccc4c(c3)OCO4)C[C@@]21C`, the GI50 in test [1] was 88.3 µM; in test [2], 45.4 µM; in test [3], 120 µM; in test [4] it was 110 µM; in [5] it was 236 µM; in test [6], 79.1 µM. For the same compound, the GI50 in [7] was 66.1 µM; in test [8], 186 µM; in test [9], 83.2 µM; in test [10], 108 µM. The TGI was 268 µM in test [1]; 780 µM in [2]; 400 µM in [3]; 320 µM in test [4]; > 1000 µM in test [5]; 481 µM in test [6]. Moreover, the TGI is 199 µM in test [7], 777 µM in test [8], 464 µM in test [9] and 410 µM in test [10].
As to `O=c1cc(-c2ccccc2)[nH]c2ccccc12`, the GI50 in [1] is 0.428 µM; in test [2] it was 0.481 µM; in [3], 4.85 µM; in test [4], 0.342 µM; in test [6], 3.18 µM; in test [7] it was 0.387 µM. Also, the results for the GI50 in test [8], in test [9] and in test [10] were 1.48 µM, 1.73 µM and 0.573 µM, respectively. Moreover, the TGI in test [1] was 33 µM; in test [2], > 100 µM; in test [3] it was > 100 µM; in test [5], > 100 µM; in [6], > 100 µM; in test [7], 19.1 µM. Moreover, the TGI was > 92.1 µM in test [8], > 100 µM in test [9] and > 100 µM in test [10].
With `Cc1ccc(-c2cn3ccnc3c(-c3ccc(Cl)cc3)n2)cc1`, the GI50 was 0.389 µM in test [1]; 1.23 µM in test [2]; 3.69 µM in test [3]; 0.0412 µM in [4]; 14.8 µM in [5]; 0.0885 µM in test [6]. Moreover, the GI50 in test [7] was 0.0627 µM; in [8], 0.714 µM; in [9], 0.532 µM; in test [10] it was 0.786 µM. In addition, the TGI was 8.11 µM in test [1]; > 35.6 µM in [2]; > 68.6 µM in [3]; > 100 µM in [5]; 11.7 µM in test [6]; 11.4 µM in test [7]. Moreover, the TGI in test [8] is > 94 µM; in test [9], 62.5 µM; in test [10], 18.1 µM.
Take `C[C@@H]1C[C@H]2CC[C@H](O2)[C@H](C)C(=O)O[C@@H](C)C[C@@H]2CC[C@@H](O2)[C@@H](C)C(=O)O[C@H](C)C[C@H]2CC[C@H](O2)[C@H](C)C(=O)O[C@@H](C)C[C@@H]2CC[C@@H](O2)[C@@H](C)C(=O)O1`: the TGI in test [1] is > 19.7 µM; in [2] it was > 100 µM; in [3], 4.78 µM; in test [4], > 40.1 µM; in test [5], > 100 µM; in [6], > 51.4 µM. Moreover, the TGI in [7] is 0.401 µM; in test [8], 0.567 µM; in [9], 18.9 µM; in test [10], > 100 µM.
On to `O=C1CC(c2ccc(O)cc2)C2(O1)C(=O)OC(C(O)CO)C2O` (configuration not stated), for which the TGI in test [1], in test [2], in test [3], in test [4], in test [5] and in test [6] was > 100 µM throughout. Also, the TGI in [7], in test [8], in test [9] and in [10] was > 100 µM in each case.
`OC(c1cc(-c2ccccc2)nc2ccc(Cl)cc12)C1CCCCN1` (configuration not stated): the GI50 in test [1] was 6.22 µM; in test [2], 1.84 µM; in test [4], 2.15 µM; in test [5], 1.84 µM; in test [6], 3.06 µM; in test [7], 1.91 µM. The GI50 in [8] was 3.85 µM; in test [9], 3.14 µM. The TGI was determined as 20.3 µM in test [1]; 3.53 µM in test [2]; 5.15 µM in test [4]; 4.3 µM in [5]; 14 µM in test [6]; 3.47 µM in test [7]. Further, the TGI in [8] is 14.4 µM; in test [9], 10.6 µM.
As for `C#CCOCn1cnc2c(Cl)ncnc21`, the TGI in test [1], in test [3], in test [4], in test [5], in test [6] and in [7] was > 100 µM throughout. Moreover, the TGI in test [8], in test [9] and in [10] was > 100 µM each time.
For `CC1=C(C)C(=O)c2c(cc3ccccn23)C1=O`, the TGI in [1] came to 46.1 µM; in test [2], 29.9 µM; in test [4], 29.2 µM; in test [5], 92.6 µM; in test [6], 52.8 µM; in [7], 22.1 µM. Further, the figures for the TGI in test [8], in test [9] and in test [10] were 63.6 µM, 27.1 µM and 27.2 µM, respectively.
In the case of `COc1cc(/C=C/c2cc(O)c3cc(C(C)=O)c(=O)oc3c2)cc2c1O[C@]1(C)CC[C@@H](O)C(C)(C)[C@H]1C2`, the TGI is > 28.2 µM in [1]; > 31.8 µM in [2]; > 79.9 µM in [3]; > 89.1 µM in test [4]; > 86 µM in test [5]; > 56.4 µM in test [6]. Further, the TGI in test [8] was > 64 µM; in test [9] it was > 68 µM; in test [10] it was > 81.4 µM. Besides, the GI50 in test [3] is > 26.8 µM; in [4], > 33.1 µM; in test [5], > 36.5 µM; in test [6], > 21.4 µM; in [8] it was > 20.6 µM; in test [9], > 33 µM.
In the case of `Cc1ccc(N=Cc2ccc3c(c2)OCO3)cc1C`, the TGI in test [1], in [2], in test [4], in [5], in test [6] and in test [7] was > 100 µM in each case. Besides, the TGI in test [8] and in test [9] was > 100 µM in each case.

The record behind these values is PubChem BioAssay (NCI).
